Data on 10 compounds can be found in US11236059B2, “Targeted cytotoxic ratjadone derivatives and conjugates thereof” (HELMHOLTZ-ZENTRUM FUER INFEKTIONSFORSCHUNG GMBH, priority 2017, dated 2022).

What all share (assay type): cell-based
For test [1], the system named is KB 3.1 (DSMZ ACC 158) cells. Kind of test: Cell proliferation assay under folate free conditions. The following applies: RPMI-medium without folic acid + 10% dialyzed fetal calf serum; MTT assay after 1, 2 and 5 days (day of the value not given); read-out: IC50 [nM] KB 3.1 (Folate-Ratjadone Conjugates). On the procedure: KB 3.1 (DSMZ ACC 158) cells were cultivated at 37° C. and 10% C002 in RMPI-medium without folic acid (Gibco) with 10% fetal calf serum (Gibco). 120 μL of suspended cells (100.000/mL) were seeded in wells of 96-well plates and after 24 h at 37° C. and 10% CO2 the medium was removed, the cells were washed with PBS and RPMI-medium without folic acid (Gibco)+10% dialyzed fetal calf serum (Sigma) were added to the cells, before after additional 24 h at 37° C. and 10% C002 60 μL of serial dilutions of the test compound were given to cells. After 1, 2 and 5 days of incubation growth inhibition (IC50) was determined using an MTT assay.^[64]
On the technique in general: Tetrazolium dyes change colour on reduction, which living cells bring about.

Test [2] has as its system SKOV-3 (DSMZ ATCC HTB 77) cells. Kind of test: cells. The method, then: (§1) 60 μL of serial dilutions of the test compound were given to 120 μL of suspended cells (50.000/mL) in wells of 96-well plates. After 5 days of incubation growth inhibition (IC50) was determined using an MTT assay.^[64]
Test [3] deals with MCF-7 (DSMZ ACC 115) cells. Kind of test: cells. On the procedure:
as §1

The target of another test is T1, CRM1 (Homo sapiens, UniProt O14980).
T1 construct: HeLa cells stably expressing a fluorescent translocation biosensor (HeLaRevBio); endogenous in cells; host or cells: HeLa (HeLaRevBio in A7; HeLa in A8)
T1 sequence (O14980 whole entry): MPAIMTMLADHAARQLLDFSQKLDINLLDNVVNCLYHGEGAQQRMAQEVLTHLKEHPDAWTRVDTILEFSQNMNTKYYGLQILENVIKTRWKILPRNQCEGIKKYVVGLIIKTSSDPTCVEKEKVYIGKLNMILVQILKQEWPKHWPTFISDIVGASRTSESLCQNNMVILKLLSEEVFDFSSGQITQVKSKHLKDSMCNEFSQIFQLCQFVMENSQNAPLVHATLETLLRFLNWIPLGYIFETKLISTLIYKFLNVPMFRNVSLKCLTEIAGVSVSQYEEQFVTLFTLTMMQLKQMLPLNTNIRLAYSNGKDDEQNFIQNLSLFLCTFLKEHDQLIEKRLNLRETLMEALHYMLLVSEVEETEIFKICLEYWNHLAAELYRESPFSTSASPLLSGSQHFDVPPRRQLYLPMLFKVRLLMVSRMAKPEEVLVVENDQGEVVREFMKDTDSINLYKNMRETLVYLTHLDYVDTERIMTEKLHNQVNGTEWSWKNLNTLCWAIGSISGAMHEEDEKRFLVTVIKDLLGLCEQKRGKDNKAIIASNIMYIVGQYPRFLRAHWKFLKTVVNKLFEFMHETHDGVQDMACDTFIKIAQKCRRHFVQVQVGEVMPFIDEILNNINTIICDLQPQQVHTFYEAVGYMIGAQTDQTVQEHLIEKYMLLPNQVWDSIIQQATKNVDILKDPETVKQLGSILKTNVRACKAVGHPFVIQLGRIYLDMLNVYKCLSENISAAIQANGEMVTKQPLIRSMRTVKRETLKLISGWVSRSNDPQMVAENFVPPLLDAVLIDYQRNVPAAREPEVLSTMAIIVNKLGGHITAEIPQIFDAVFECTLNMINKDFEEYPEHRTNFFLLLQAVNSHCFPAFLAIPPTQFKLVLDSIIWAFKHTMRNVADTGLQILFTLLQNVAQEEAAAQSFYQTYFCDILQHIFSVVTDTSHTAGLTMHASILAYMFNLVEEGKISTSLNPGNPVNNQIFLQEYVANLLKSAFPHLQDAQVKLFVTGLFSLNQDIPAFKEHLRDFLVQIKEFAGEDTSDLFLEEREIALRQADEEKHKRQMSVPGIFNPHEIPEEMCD
Kind of test: Monitoring export inhibitory activity (translocation biosensor, HeLaRevBio cells). On the procedure:
Export inhibitory ability of compounds was evaluated with the translocation biosensor system. This cellular assay depends on a recombinantly expressed fusion protein consisting of a nuclear localization signal (SV40-NLS), glutathione S-transferase (GST), green fluorescent protein (GFP) and a nuclear export signal (HIV1-RevNES). Due to the two transport signals (NLS/NES), the biosensor is permanently shuttling between nucleus and cytoplasm but resides prominently in the cytoplasm due to a comparatively stronger NES. Export inhibiting compound induce a nuclear accumulation of the GFP-signal^[65,66] Cell lines were maintained as recommended by the American Type Culture Collection in DMEM containing 5% glutamine (Thermo Fisher Scientific, Waltham, USA) supplemented with 10% FBS (Thermo Fisher Scientific, Waltham, USA). For quantifying the nuclear export inhibitory effect, HeLa cells stably expressing a fluorescent translocation biosensor (HeLaRevBio)^[67] were seeded into black 96 well μclear plates (Greiner, Germany). They next day compounds were added covering an appropriate concentration range. After 1h of incubation, cells were fixed in 4% PFA for 10 min and permeabilized with 0.1% Triton X 100 in PBS for 5 min. After washing with PBS nuclei were labeled with Hoechst H33342 (30 min 10 μg/ml). The intracellular distribution of the biosensor-dependent GFP signal was quantitatively evaluated with the high content imaging system ImageXpress MicroXLS (Molecular Devices, Sunnyvale, USA). By using the translocation enhanced application module (Molecular Devices, Sunnyvale, USA) the GFP-intensity was quantified in the cytoplasm and nuclear region. As final readout the difference of Mean Inner and Mean Outer Intensity was calculated. IC50s of nuclear export inhibition were calculated using Sigma Plot with four parameter logistics curve regression (Systat Software GmbH, Erkrath, Germany). […] The following day compounds were added at 125 nM final concentration.

For test [4], the system named is A549 (DSMZ ACC 107) cells. Kind of test: cells. The conditions noted are these: growth inhibition, 5 days of incubation, MTT assay; read-out: IC50 [nM] A-549 (Gonadoliberin-Ratjadone Conjugates). On the procedure: as §1
The mark [5] stands for this setting: HeLa cells stably expressing translocation biosensor, 1h of incubation, read-out: IC50 [nM] CRM1 (nuclear export inhibition).

Molecules are shown by their SMILES. Read-outs that look alike come from different tables or passages of the source.

Take `C/C=C/[C@@H]1O[C@H]([C@@H](/C=C/C=C(\C)C[C@@H](C)/C=C(C)\C=C\[C@H]2CC=CC(=O)O2)NC(=O)OCCc2cn(-c3ccc(C(=O)NCCCC[C@H](NC(=O)CC[C@H](NC(=O)c4ccc(NCc5cnc6nc(N)nc(O)c6n5)cc4)C(=O)O)C(=O)N[C@H](CCCCN)C(=O)O)cc3)nn2)C[C@@H](O)[C@@H]1C` [FA-8-16R-Aminoratjadone, N^2—((S)-4-(4-(((2-amino-4-hydroxypteridin-6-yl)methyl)amino)benzamido)-4-carboxybutanoyl)-N^6-(4-(4-(2-((((1R,2E,4E,7R,8Z,10E)-1-((2S,4R,5S,6S)-4-hydroxy-5-methyl-6-((E)-prop-1-en-1-yl)tetrahydro-2H-pyran-2-yl)-5,7,9-trimethyl-11-((R)-6-oxo-3,6-dihydro-2H-pyran-2-yl)undeca-2,4,8,10-tetraen-1-yl)carbamoyl)oxy)ethyl)-1H-1,2,3-triazol-1-yl)benzoyl)-L-lysyl-D-lysine]: the IC50 in test [1] is 129 nM. With `C/C=C/[C@@H]1O[C@H]([C@@H](/C=C/C=C(\C)C[C@@H](C)/C=C(C)\C=C\[C@H]2CC=CC(=O)O2)NC(=O)OCc2ccc(NC(=O)[C@H](CCCNC(N)=O)NC(=O)[C@@H](NC(=O)OC[C@@H]3[C@@H]4CCc5nnn(CCC[C@H](NC(=O)CC[C@H](NC(=O)CC[C@H](NC(=O)c6ccc(NCc7cnc8nc(N)nc(O)c8n7)cc6)C(=O)O)C(=O)O)C(=O)O)c5CC[C@@H]43)C(C)C)cc2)C[C@@H](O)[C@@H]1C` [FA-7-Val-Cit-PABA-16R-Aminoratjadone], the IC50 in test [1] amounted to 34.3 nM. Same read-out and setting: under `C/C=C/[C@@H]1O[C@H]([C@@H](/C=C/C=C(\C)C[C@@H](C)/C=C(C)\C=C\[C@H]2CC=CC(=O)O2)NC(=O)OCCc2cn(CCC[C@H](NC(=O)[C@@H](CC(=O)O)NC(=O)[C@@H](CC(=O)O)NC(=O)[C@@H](CC(=O)O)NC(=O)CC[C@H](NC(=O)c3ccc(NCc4cnc5nc(N)nc(O)c5n4)cc3)C(=O)O)C(=O)N[C@H](CC(=O)O)C(=O)N[C@H](CC(=O)O)C(=O)N[C@H](CCCCN)C(=O)O)nn2)C[C@@H](O)[C@@H]1C` [FA-10-16R-Aminoratjadone] stands 708 nM. With `C/C=C/[C@@H]1O[C@H]([C@H](N)/C=C/C=C(\C)C[C@@H](C)/C=C(C)\C=C\[C@H]2CC=CC(=O)O2)C[C@@H](O)[C@@H]1C` [16R-Amino-Ratjadone 11, (R)-6-((1E,3Z,5R,7E,9E,11R)-11-amino-11-((2S,4R,5S,6S)-4-hydroxy-5-methyl-6-((E)-prop-1-en-1-yl)tetrahydro-2H-pyran-2-yl)-3,5,7-trimethylundeca-1,3,7,9-tetra-en-1-yl)-5,6-dihydro-2H-pyran-2-one], the IC50 was 0.61 nM in test [2] (Homo sapiens, SK-OV-3, 120 h, read-out: IC50 [nM] SK-OV-3, growth inhibition, 5 days of incubation, MTT assay); 0.81 nM in test [2] (read-out: IC50 [nM] SK-OV-3, growth inhibition, 5 days of incubation, MTT assay); 0.26 nM in test [3] (Homo sapiens, MCF7, 120 h, read-out: IC50 [nM] MCF-7, growth inhibition, 5 days of incubation, MTT assay); 0.36 nM in test [3] (read-out: IC50 [nM] MCF-7, growth inhibition, 5 days of incubation, MTT assay); 2.7 nM at CRM1 (setting [5]). Regarding `C/C=C/[C@@H]1O[C@H]([C@@H](N)/C=C/C=C(\C)C[C@@H](C)/C=C(C)\C=C\[C@H]2CC=CC(=O)O2)C[C@@H](O)[C@@H]1C` [16S-Amino-Ratjadone 12, (R)-6-((1E,3Z,5R,7E,9E,11 S)-11-amino-11-((2S,4R,5S,6S)-4-hydroxy-5-methyl-6-((E)-prop-1-en-1-yl)tetrahydro-2H-pyran-2-yl)-3,5,7-trimethylun-deca-1,3,7,9-tetraen-1-yl)-5,6-dihydro-2H-pyran-2-one], the IC50 on CRM1 (setting [5]) is 2.8 nM. As to `C/C=C/[C@@H]1O[C@H]([C@@H](/C=C/C=C(\C)C[C@@H](C)/C=C(C)\C=C\[C@H]2CC=CC(=O)O2)NC(=O)OCc2ccc(NC(=O)[C@H](CCCNC(N)=O)NC(=O)[C@@H](NC(=O)OC[C@@H]3[C@@H]4CCc5nnn(CCC[C@@H](NC(=O)[C@H](Cc6ccc(O)cc6)NC(=O)[C@H](CO)NC(=O)[C@H](Cc6c[nH]c7ccccc67)NC(=O)[C@H](Cc6c[nH]cn6)NC(=O)[C@@H]6CCC(=O)N6)C(=O)N[C@@H](CC(C)C)C(=O)N[C@@H](CCCNC(=N)N)C(=O)N6CCC[C@H]6C(=O)NNC(N)=O)c5CC[C@@H]43)C(C)C)cc2)C[C@@H](O)[C@@H]1C`, the IC50 in test [4] turned out to be 12.8 nM. The same measure, in the same setting: under `C/C=C/[C@@H]1O[C@H]([C@@H](/C=C/C=C(\C)C[C@@H](C)/C=C(C)\C=C\[C@H]2CC=CC(=O)O2)NC(=O)OCc2ccc(NC(=O)[C@H](CCCNC(N)=O)NC(=O)[C@@H](NC(=O)OCCc3cn(CCC[C@H](NC(=O)[C@H](Cc4ccc(O)cc4)NC(=O)[C@H](CO)NC(=O)[C@H](Cc4c[nH]c5ccccc45)NC(=O)[C@H](Cc4c[nH]cn4)NC(=O)[C@@H]4CCC(=O)N4)C(=O)N[C@@H](CC(C)C)C(=O)N[C@@H](CCCNC(=N)N)C(=O)N4CCC[C@H]4C(=O)NCC(N)=O)nn3)C(C)C)cc2)C[C@@H](O)[C@@H]1C` stands 1200 nM.

Turning to `C/C=C/[C@@H]1O[C@H]([C@@H](/C=C/C=C(\C)C[C@@H](C)/C=C(C)\C=C\[C@H]2CC=CC(=O)O2)NC(=O)OCCc2cn(CCC[C@H](NC(=O)[C@H](Cc3ccc(O)cc3)NC(=O)[C@H](CO)NC(=O)[C@H](Cc3c[nH]c4ccccc34)NC(=O)[C@H](Cc3c[nH]cn3)NC(=O)[C@@H]3CCC(=O)N3)C(=O)N[C@@H](CC(C)C)C(=O)N[C@@H](CCCNC(=N)N)C(=O)N3CCC[C@H]3C(=O)NCC(N)=O)nn2)C[C@@H](O)[C@@H]1C` [L-Orn-LHRH-16R-Aminoratjadone], the IC50 in test [4] is 1600 nM; against CRM1, 1060 nM. Regarding `C/C=C/[C@@H]1O[C@H]([C@@H](/C=C/C=C(\C)C[C@@H](C)/C=C(C)\C=C\[C@H]2CC=CC(=O)O2)NC(=O)OCc2ccc(NC(=O)[C@H](CCCNC(N)=O)NC(=O)[C@@H](NC(=O)OC[C@@H]3[C@@H]4CCc5nnn(CCC[C@@H](NC(=O)[C@H](Cc6ccc(O)cc6)NC(=O)[C@H](CO)NC(=O)[C@H](Cc6c[nH]c7ccccc67)NC(=O)[C@H](Cc6c[nH]cn6)NC(=O)[C@@H]6CCC(=O)N6)C(=O)N[C@@H](CC(C)C)C(=O)N[C@@H](CCCNC(=N)N)C(=O)N6CCC[C@H]6C(=O)NCC(N)=O)c5CC[C@@H]43)C(C)C)cc2)C[C@@H](O)[C@@H]1C`, the IC50 in test [4] worked out at 23 nM. Consider `C/C=C/[C@@H]1O[C@H]([C@H](O)/C=C/C=C(\C)C[C@@H](C)/C=C(C)\C=C\[C@H]2CC=CC(=O)O2)C[C@@H](O)[C@@H]1C` [Ratjadone A 1, (R)-6-((1E,3Z,5R,7E,9E,11R)-11-hydroxy-11-((2S,4R,5S,6S)-4-hydroxy-5-methyl-6-((E)-prop-1-en-1-yl)tetrahydro-2H-pyran-2-yl)-3,5,7-trimethylundeca-1,3,7,9-tetraen-1-yl)-5,6-dihydro-2H-pyran-2-one, reference compound], for which, at CRM1 (setting [5]), the IC50 amounted to 1.2 nM.

Broadly, the IC50 is the midpoint of a concentration-inhibition curve.
